Laboratory results reported in paper PMC5066224, “A Novel Resveratrol Based Tubulin Inhibitor Induces Mitotic Arrest and Activates Apoptosis in Cancer Cells” (Scientific Reports, 2016).

Assays:
A549 cells = assay: Immunofluorescence microscopy of spindle microtubule organisation; type: cell-based, human; conditions: A549, positive control, compared to untreated cells
Method: Immunofluorescence microscopy was performed as previously described. A549 cells were grown on coverslips coated with gelatin (0.1%). […] After 24 h of the treatment nonspecific antibody binding sites were blocked using FBS following which cells were incubated with antitubulin antibody (1:500) at RT. Coverslips were washed in PBS, incubated in biotinylated antimouse secondary antibody (1:500; RT for 1 h) followed by Streptavidin-FITC (1:200). Finally, cells were mounted with DABCO and images were captured using Zeiss Fluorescence microscope and analyzed using Axio vision software. Colchicine treated cells were used as a positive control.

CEM cells = assay: Intracellular ROS production (H2DCFDA, flow cytometry); type: cell-based, Human; conditions: 5 to 60 min
Method: Intracellular ROS generation in cells was assessed using the oxidation-sensitive fluorescent probe 2,7-dichlorodihydro fluorescein diacetate (H2DCFDA) as previously described. CEM cells were treated with SS28 (5 μM) for 5, 10, 15, 30 and 60 min, harvested, washed and incubated with H2DCFDA (30 min at 37 °C) and then fluorescence intensity was analyzed by flow cytometry. H2O2 was used as the positive control.

Row | Structure (SMILES) | effect on chromosomes and mitosis (immunofluorescence) (A549 cells) | intracellular ROS production (CEM cells)
1 | COc1cc2c(c(OC)c1OC)-c1ccc(OC)c(=O)cc1[C@@H](NC(C)=O)CC2 [Colchicine, reference compound] | chromosome condensation and metaphase arrest was observed | 
2 | OO [H2O2, reference compound] |  | distinct ROS production
